Results: paper PMC10096180, “Half-Sandwich Type Platinum-Group Metal Complexes of C-Glucosaminyl Azines: Synthesis and Antineoplastic and Antimicrobial Activities” (Molecules, 2023)

What was measured:
A2780 cells [1] = assay: MTT reduction assay, early toxicity, 4 h treatment; type: cell-based
In short: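 Cells plated the day before, exposed to compounds for 4 h, then MTT 0.5 mg/mL for 40–60 min at 37 °C; reduced dye dissolved in DMSO, read at 540 nm relative to vehicle wells. IC50 by four-parameter fit; otherwise % inhibition at 100 μM.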

A2780 cells [2] = assay: SRB binding assay, cytostasis, 48 h treatment; type: cell-based
In short: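 Ovarian cancer A2780 cells and primary human dermal fibroblasts treated 48 h, TCA-fixed, SRB-stained, absorbance at 540 nm relative to vehicle. IC50 from four-parameter fit when a plateau was reached or inhibition exceeded 90%; otherwise percent inhibition at 100 μM.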

Cc1ccc(C(C)C)cc1.F[P-](F)(F)(F)(F)F.N[C@@H]1[C@@H](OCc2ccccc2)[C@H](OCc2ccccc2)[C@@H](COCc2ccccc2)O[C@H]1c1ccccn1.[Cl][Ru+] [Ru-3a]
IC50 (A2780 cells [1]): 8.02 µM
A2780 MTT Max Inhibition (A2780 cells [1]; inhibition at maximum concentration (100 μM) where no plateau, ND = not detectable): >90%
IC50 (A2780 cells [2]): 1.86 µM
A2780 SRB Max Inhibition (A2780 cells [2]; up to 100 μM, ND = not detectable): >90%
